Data from patent US10955352B2, “Method for assessing a state of a living cell” (Agency for Science, Technology and Research, priority 2016, dated 2021).

System: HeLa cells
Test: SERS detection and quantification of sialic acid on single living HeLa cells with DBA tag (HC-PCF)
Type: cell-based
Description: HeLa cells were cultured in Dulbecco's modified eagle medium (DMEM) with 1% penicillin streptomycin (Gibco) and 10% fetal bovine serum (Gibco) in the dark with 5% CO2 and 37° C. until they were confluent. The cells were then harvested by adding 1×EDTA trypsin of appropriate volume for 4 min, followed by addition of DMEM of double that volume to neutralize the trypsin. The harvested cells were centrifuged at 1,500 rpm for 3 mins. The supernatant was removed and the cells were suspended with DMEM to achieve a cell concentration of 5000 cells/ml. Two milliliter of cell suspension was seeded per well in a six-well plate and allowed to grow for 48 hours.
After incubation, DMEM was removed from each well and the adhered cells were rinsed lightly with 1×PBS which was subsequently removed. Four wells were used in our experiment. In order to reduce the probability of DBA binding onto sites of sialic acid on the surface of the cell membrane, thus mimicking a cell with lowered sialic acid level, 10 mM of phenyl-boronic acid (PBA) (Sigma Aldrich) dissolved in DMEM and 1% DMSO (Merck Millipore) were added to one well (Well A) and left to incubate for 24 hours. […]
Post-incubation washing was performed for all the wells and 10 mM of DBA (Sigma Aldrich) dissolved in DMEM and 1% DMSO was added into wells A, B and C, with incubation time of 4 hours. […] Supernatant were removed after centrifugation and the cells are ready for SERS sample preparation. […]
SERS spectra were recorded using a Raman microscope system (Renishaw InVia) with a 633 nm excitation laser and equipped with a grating (spectral resolution of about 1.8 cm^−1). […]
In order to calculate the amount of sialic acid on cell for Sialic acid and (+)Sialic acid samples, intensity of the 2,000 cm^−1 peak was obtained from the SERS measurement (FIG. 10A). […] The number of sialic acid molecules may be quantified by estimating the amount of DBA molecules from the trend line as the binding between DBA molecule to the sialic acid molecule is one by one. […]

SMILES	2,000 cm^-1 peak in Raman spectrum (DBA binding to sialic acid) after pre-treatment (HeLa cells, 10 mM PBA 24 hours, then 10 mM DBA 4 hours)	calculated sialic acid amount on a single HeLa cell (5 μM prednisolone 72 hours, then 10 mM DBA 4 hours, estimated from DBA calibration curve of 2,000 cm^-1 peak)	intensity at 2,000 cm^-1 (DBA alkyne peak, sialic acid expression) versus positive control (HeLa cells, 5 μM prednisolone 72 hours, then DBA)
OB(O)c1ccccc1 [PBA, phenyl-boronic acid]	negligible presence of that peak	–	–
C[C@]12C=CC(=O)C=C1CC[C@@H]1[C@@H]2[C@@H](O)C[C@@]2(C)[C@H]1CC[C@]2(O)C(=O)CO [prednisolone]	–	6.782 fmol	higher than that of the positive control
